Structures are written as SMILES. Values after ≈ are worked out from the molar mass of the structure shown.

One assay has as its system Streptococcus mutans. As to the kind of experiment: Antibacterial activity against Streptococcus mutans MTCC 497 assessed as zone of inhibition at 100 ug/well measured after 24 hrs by agar well diffusion method. It counts as functional. The conditions noted are these: MTCC 497, 24 h, read-out: DIZ. For orientation: In agar diffusion tests the substance spreads into inoculated agar from a disc or well.
As to `CC1(C)O[C@H]2O[C@@H]3COB(c4cccc(/N=C/c5cc([N+](=O)[O-])ccc5O)c4)O[C@@H]3[C@H]2O1`, the zone of inhibition at 100 µg/disc was found to be 23 mm.

For `CC(C)c1ccc(/N=C/c2ccc(B3OC[C@H]4O[C@@H]5OC(C)(C)O[C@@H]5[C@H]4O3)cc2)cc1`, the zone of inhibition at 100 µg/disc was 19 mm.

The next assay concerns Candida albicans. As to the kind of experiment: Antifungal activity against Candida albicans MTCC 3017 assessed as zone of inhibition at 100 ug/well measured after 48 hrs by agar well diffusion method. The class given is functional. The conditions noted are these: MTCC 3017, 48 h, read-out: DIZ.
Consider `CC1(C)O[C@H]2O[C@@H]3COB(c4cccc(/N=C/c5cc([N+](=O)[O-])ccc5O)c4)O[C@@H]3[C@H]2O1`, for which the zone of inhibition at 100 µg/disc is 23 mm.

With `CC(C)c1ccc(/N=C/c2ccc(B3OC[C@H]4O[C@@H]5OC(C)(C)O[C@@H]5[C@H]4O3)cc2)cc1`, the zone of inhibition at 100 µg/disc came to 12 mm.

The next assay relates to Salmonella paratyphi. As to the kind of experiment: Antibacterial activity against Salmonella paratyphi measured after 24 hrs by NCCL protocol based broth dilution method. It counts as functional, Salmonella enterica subsp. enterica serovar Paratyphi A. The conditions noted are these: Salmonella enterica.
The MIC is the lowest concentration found to suppress growth. High values mean a need for much substance, low ones inhibition by little substance. `CC1(C)O[C@H]2O[C@@H]3COB(c4cccc(/N=C/c5cc([N+](=O)[O-])ccc5O)c4)O[C@@H]3[C@H]2O1` yielded an MIC of 31.2 µg/mL (≈ 71 µM).

Compound `CC(C)c1ccc(/N=C/c2ccc(B3OC[C@H]4O[C@@H]5OC(C)(C)O[C@@H]5[C@H]4O3)cc2)cc1` yielded an MIC of 500 µg/mL (≈ 1190 µM).

The subject of a further assay is Salmonella typhi. As to the kind of experiment: Antibacterial activity against Salmonella typhi measured after 24 hrs by NCCL protocol based broth dilution method. It counts as functional, Salmonella enterica subsp. enterica serovar Typhi. The following applies: Salmonella enterica. (Broth dilution looks for growth in wells or tubes with falling amounts of substance.)
`CC1(C)O[C@H]2O[C@@H]3COB(c4cccc(/N=C/c5cc([N+](=O)[O-])ccc5O)c4)O[C@@H]3[C@H]2O1`: 15.6 µg/mL (≈ 35.5 µM) was the least that counted as inhibitory (MIC).

For the compound `CC(C)c1ccc(/N=C/c2ccc(B3OC[C@H]4O[C@@H]5OC(C)(C)O[C@@H]5[C@H]4O3)cc2)cc1`, 62.5 µg/mL (≈ 148 µM) was the least that counted as inhibitory (MIC).

A further assay relates to Salmonella typhi. As to the kind of experiment: Antibacterial activity against Salmonella typhi assessed as zone of inhibition at 100 ug/well measured after 24 hrs by agar well diffusion method. It counts as functional, Salmonella enterica subsp. enterica serovar Typhi. The following applies: Salmonella enterica, read-out: DIZ.
For the compound `CC1(C)O[C@H]2O[C@@H]3COB(c4cccc(/N=C/c5cc([N+](=O)[O-])ccc5O)c4)O[C@@H]3[C@H]2O1`, the zone of inhibition at 100 µg/disc was 28 mm.

On to `CC(C)c1ccc(/N=C/c2ccc(B3OC[C@H]4O[C@@H]5OC(C)(C)O[C@@H]5[C@H]4O3)cc2)cc1`, for which the zone of inhibition at 100 µg/disc came to 22 mm.

A further assay deals with Micrococcus luteus. As to the kind of experiment: Antibacterial activity against Micrococcus luteus MTCC 106 assessed as zone of inhibition at 100 ug/well measured after 24 hrs by agar well diffusion method. The class given is functional. The following applies: MTCC 106, 24 h, read-out: DIZ.
For the compound `CC1(C)O[C@H]2O[C@@H]3COB(c4cccc(/N=C/c5cc([N+](=O)[O-])ccc5O)c4)O[C@@H]3[C@H]2O1`, the zone of inhibition at 100 µg/disc was 25 mm.

Consider `CC(C)c1ccc(/N=C/c2ccc(B3OC[C@H]4O[C@@H]5OC(C)(C)O[C@@H]5[C@H]4O3)cc2)cc1`, for which the zone of inhibition at 100 µg/disc turned out to be 13 mm.

In another assay the test system is Salmonella paratyphi. As to the kind of experiment: Antibacterial activity against Salmonella paratyphi assessed as zone of inhibition at 100 ug/well measured after 24 hrs by agar well diffusion method. The following applies: Salmonella enterica, read-out: DIZ. It counts as functional, Salmonella enterica subsp. enterica serovar Paratyphi A.
In the case of `CC1(C)O[C@H]2O[C@@H]3COB(c4cccc(/N=C/c5cc([N+](=O)[O-])ccc5O)c4)O[C@@H]3[C@H]2O1`, the zone of inhibition at 100 µg/disc is 21 mm.

Regarding `CC(C)c1ccc(/N=C/c2ccc(B3OC[C@H]4O[C@@H]5OC(C)(C)O[C@@H]5[C@H]4O3)cc2)cc1`, the zone of inhibition at 100 µg/disc was found to be 0 mm.

A further assay has as its system Streptococcus mutans. As to the kind of experiment: Antibacterial activity against Streptococcus mutans MTCC 497 measured after 24 hrs by NCCL protocol based broth dilution method. The class given is functional. The conditions noted are these: MTCC 497, 24 h.
For the compound `CC1(C)O[C@H]2O[C@@H]3COB(c4cccc(/N=C/c5cc([N+](=O)[O-])ccc5O)c4)O[C@@H]3[C@H]2O1`, the MIC is 31.2 µg/mL (≈ 71 µM).

Compound `CC(C)c1ccc(/N=C/c2ccc(B3OC[C@H]4O[C@@H]5OC(C)(C)O[C@@H]5[C@H]4O3)cc2)cc1` showed an MIC of 125 µg/mL (≈ 297 µM).

In another assay the test system is Staphylococcus aureus. As to the kind of experiment: Antibacterial activity against Staphylococcus aureus MTCC 3160 measured after 24 hrs by NCCL protocol based broth dilution method. It counts as functional. The following applies: MTCC 3160, 24 h.
Compound `CC1(C)O[C@H]2O[C@@H]3COB(c4cccc(/N=C/c5cc([N+](=O)[O-])ccc5O)c4)O[C@@H]3[C@H]2O1` yielded an MIC of 31.2 µg/mL (≈ 71 µM).

Compound `CC(C)c1ccc(/N=C/c2ccc(B3OC[C@H]4O[C@@H]5OC(C)(C)O[C@@H]5[C@H]4O3)cc2)cc1` returned an MIC of 125 µg/mL (≈ 297 µM).

For the next assay, the system named is Micrococcus luteus. As to the kind of experiment: Antibacterial activity against Micrococcus luteus MTCC 106 measured after 24 hrs by NCCL protocol based broth dilution method. It counts as functional. The conditions noted are these: MTCC 106, 24 h.
In the case of `CC1(C)O[C@H]2O[C@@H]3COB(c4cccc(/N=C/c5cc([N+](=O)[O-])ccc5O)c4)O[C@@H]3[C@H]2O1`, the MIC worked out at 15.6 µg/mL (≈ 35.5 µM).

Take `CC(C)c1ccc(/N=C/c2ccc(B3OC[C@H]4O[C@@H]5OC(C)(C)O[C@@H]5[C@H]4O3)cc2)cc1`: inhibition of growth (MIC) required 250 µg/mL (≈ 593 µM).

A further assay has as its system Candida albicans. Nature of the assay: Antifungal activity against Candida albicans MTCC 3017 measured after 48 hrs by NCCL protocol based broth dilution method. It counts as functional. The conditions noted are these: MTCC 3017, 48 h.
The compound `CC1(C)O[C@H]2O[C@@H]3COB(c4cccc(/N=C/c5cc([N+](=O)[O-])ccc5O)c4)O[C@@H]3[C@H]2O1` showed an MIC of 31.2 µg/mL (≈ 71 µM).

`CC(C)c1ccc(/N=C/c2ccc(B3OC[C@H]4O[C@@H]5OC(C)(C)O[C@@H]5[C@H]4O3)cc2)cc1` displayed an MIC of 250 µg/mL (≈ 593 µM).

A further assay concerns Aspergillus fumigatus. Nature of the assay: Antifungal activity against Aspergillus fumigatus MTCC 343 assessed as zone of inhibition at 100 ug/well measured after 48 hrs by agar well diffusion method. The class given is functional. The conditions noted are these: MTCC 343, 48 h, read-out: DIZ.
Turning to `CC1(C)O[C@H]2O[C@@H]3COB(c4cccc(/N=C/c5cc([N+](=O)[O-])ccc5O)c4)O[C@@H]3[C@H]2O1`, the zone of inhibition at 100 µg/disc is 22 mm.

As for `CC(C)c1ccc(/N=C/c2ccc(B3OC[C@H]4O[C@@H]5OC(C)(C)O[C@@H]5[C@H]4O3)cc2)cc1`, the zone of inhibition at 100 µg/disc amounted to 0 mm.

The next assay has as its system Klebsiella pneumoniae. Nature of the assay: Antibacterial activity against Klebsiella pneumoniae MTCC 3384 assessed as zone of inhibition at 100 ug/well measured after 24 hrs by agar well diffusion method. The class given is functional. The following applies: MTCC 3384, 24 h, read-out: DIZ.
As to `CC1(C)O[C@H]2O[C@@H]3COB(c4cccc(/N=C/c5cc([N+](=O)[O-])ccc5O)c4)O[C@@H]3[C@H]2O1`, the zone of inhibition at 100 µg/disc worked out at 18 mm.

For the compound `CC(C)c1ccc(/N=C/c2ccc(B3OC[C@H]4O[C@@H]5OC(C)(C)O[C@@H]5[C@H]4O3)cc2)cc1`, the zone of inhibition at 100 µg/disc was determined as 24 mm.

For the next assay, the system named is Aspergillus fumigatus. As to the kind of experiment: Antifungal activity against Aspergillus fumigatus MTCC 343 measured after 48 hrs by NCCL protocol based broth dilution method. It counts as functional. The conditions noted are these: MTCC 343, 48 h.
`CC1(C)O[C@H]2O[C@@H]3COB(c4cccc(/N=C/c5cc([N+](=O)[O-])ccc5O)c4)O[C@@H]3[C@H]2O1`: the MIC is 62.5 µg/mL (≈ 142 µM).

Compound `CC(C)c1ccc(/N=C/c2ccc(B3OC[C@H]4O[C@@H]5OC(C)(C)O[C@@H]5[C@H]4O3)cc2)cc1` came in with an MIC of 500 µg/mL (≈ 1190 µM).

The test system of the next assay is Klebsiella pneumoniae. As to the kind of experiment: Antibacterial activity against Klebsiella pneumoniae MTCC 3384 measured after 24 hrs by NCCL protocol based broth dilution method. It counts as functional. The following applies: MTCC 3384, 24 h.
Regarding `CC1(C)O[C@H]2O[C@@H]3COB(c4cccc(/N=C/c5cc([N+](=O)[O-])ccc5O)c4)O[C@@H]3[C@H]2O1`, the minimal inhibitory concentration (MIC) came to 62.5 µg/mL (≈ 142 µM).

`CC(C)c1ccc(/N=C/c2ccc(B3OC[C@H]4O[C@@H]5OC(C)(C)O[C@@H]5[C@H]4O3)cc2)cc1` gave an MIC of 31.2 µg/mL (≈ 74.2 µM).

For the next assay, the system named is Staphylococcus aureus. As to the kind of experiment: Antibacterial activity against Staphylococcus aureus MTCC 3160 assessed as zone of inhibition at 100 ug/well measured after 24 hrs by agar well diffusion method. It counts as functional. The conditions noted are these: MTCC 3160, 24 h, read-out: DIZ.
For the compound `CC1(C)O[C@H]2O[C@@H]3COB(c4cccc(/N=C/c5cc([N+](=O)[O-])ccc5O)c4)O[C@@H]3[C@H]2O1`, the zone of inhibition at 100 µg/disc came out at 21 mm.

As for `CC(C)c1ccc(/N=C/c2ccc(B3OC[C@H]4O[C@@H]5OC(C)(C)O[C@@H]5[C@H]4O3)cc2)cc1`, the zone of inhibition at 100 µg/disc was 16 mm.

The values above are taken from ChEMBL document CHEMBL3822364, “Synthesis, characterization and antimicrobial activity of novel Schiff base tethered boronate esters of 1,2-O-isopropylidene-α-d-xylofuranose” (2016).
